We go through 15 compounds from patent US9062051B2, “Compounds and pharmaceutical compositions thereof for the treatment of proliferative disorders” (GALAPAGOS NV, priority 2014, dated 2015).

Data set [1] in a line: Pharmacokinetics in rats (exposure, AUC). Type of data set: in vivo, male Sprague Dawley rats. Particulars: 5 mg/kg, po; for AUC: male, Sprague Dawley, rat, plasma. On the procedure: This study is performed with 6 naïve male Sprague Dawley rats (180-200 g, 6-8 weeks old). Rats are obtained from Janvier, Le Genest St Isle, France.
A controlled environment is maintained in the room with optimal conditions of approximately 15 air changes per hour, a temperature of 22±2 C, a relative humidity of 30-70% and a 12 hour light/dark cycle
Pelleted diet for rodents (UAR A04C-10) is used and is provided ad libitum. Before p.o. dosing, the animals are deprived of food for at least 12 hours before compound administration and 4 hours after administration. All animals had free access to tap water.
Two days before the dosing day, the implantation of a catheter in the jugular vein is done under gaseous anaesthesia with isoflurane.
Rats are dosed intravenously with test compound via a bolus in the tail vein with a dose level of 1 mg/kg. […]
The i.v. bolus and the oral administration are given a dose volume of 5 mL/kg.
From all animals approximately 200 μL blood samples are collected via the catheter and placed into tubes containing Li-heparin as anticoagulant. Blood samples are collected at the various time points (i.v.: 0.05, 0.25, 0.5, 1, 3, 5, 8 and 24 hours after dosing; p.o.: 0.25, 0.5, 1, 3, 5, 8 and 24 hours after dosing).
Blood is kept on ice. Within 1 hour after sampling, blood is centrifuged at 5,000 rpm for 10 min at 4° C. Immediately after centrifugation, the resulting plasma samples are collected into polypropylene tubes and are kept frozen at −20° C. pending bioanalysis.
Plasma samples are assayed by LC-MS/MS. Plasma proteins are precipitated with an excess of methanol containing the internal standard and the corresponding supernatant is injected on a C18 column. Analytes are eluted out the HPLC system by increasing the percentage of the organic mobile phase. An API4000 mass spectrometer (AB Sciex™) is used for the detection and quantification.
Pharmacokinetic parameters are calculated by non-compartmental analysis using WinNonlin® software (Pharsight, version 5.2).

The next data set deals with T1, Recombinant EphB2 (Homo sapiens, UniProt P29323).
T1 construct: purchased Carna 08-129
T1 sequence (P29323 19-986 isoform P29323-2 limits assumed): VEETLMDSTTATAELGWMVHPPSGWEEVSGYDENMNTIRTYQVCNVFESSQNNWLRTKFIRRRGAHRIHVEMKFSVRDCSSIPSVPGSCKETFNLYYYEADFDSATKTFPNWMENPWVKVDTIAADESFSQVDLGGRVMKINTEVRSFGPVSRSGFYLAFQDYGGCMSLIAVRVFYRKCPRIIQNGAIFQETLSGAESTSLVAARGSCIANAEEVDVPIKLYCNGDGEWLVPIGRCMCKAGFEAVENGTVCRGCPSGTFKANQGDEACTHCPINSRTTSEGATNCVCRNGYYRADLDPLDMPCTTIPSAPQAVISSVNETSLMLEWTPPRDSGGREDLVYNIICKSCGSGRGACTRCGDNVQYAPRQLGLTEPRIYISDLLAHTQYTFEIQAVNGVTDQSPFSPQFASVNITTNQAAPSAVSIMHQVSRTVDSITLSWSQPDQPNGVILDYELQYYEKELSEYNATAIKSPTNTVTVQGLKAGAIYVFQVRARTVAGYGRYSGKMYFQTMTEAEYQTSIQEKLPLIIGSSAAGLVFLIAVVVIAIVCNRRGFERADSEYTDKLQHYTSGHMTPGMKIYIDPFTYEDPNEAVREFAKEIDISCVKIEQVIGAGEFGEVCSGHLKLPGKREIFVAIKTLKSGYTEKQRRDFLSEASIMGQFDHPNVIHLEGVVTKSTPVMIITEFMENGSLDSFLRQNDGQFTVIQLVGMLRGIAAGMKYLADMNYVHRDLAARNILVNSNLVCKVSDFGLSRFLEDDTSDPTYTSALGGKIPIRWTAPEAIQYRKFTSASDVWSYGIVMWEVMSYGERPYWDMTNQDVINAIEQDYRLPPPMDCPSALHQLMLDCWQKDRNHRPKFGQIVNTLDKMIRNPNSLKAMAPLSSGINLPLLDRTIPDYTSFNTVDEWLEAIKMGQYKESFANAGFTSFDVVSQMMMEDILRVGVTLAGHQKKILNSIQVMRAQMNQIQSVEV
The experiment in a line: EphB2 assay (33P incorporation into poly GT, filter plate). Type of data set: biochemical. Particulars: read-out: EphB2 potency IC50. The protocol: The principle of the assay consists of the measurement of incorporated ^33P into the substrate poly GT when phosphorylated by the enzyme EphB2 using [^33P]-γ-ATP and ATP. Unincorporated ^33P is removed by loading the samples on a filter plate (using a harvester, Perkin Elmer) and 6 subsequent washing steps. ^33P incorporated in polyGT is measured on a Topcount after addition of microscint to the filter plates (Perkin Elmer).
Recombinant EphB2 (Carna Cat#08-129, 0.6 ng per well) was incubated with 0.05 mg/mL Poly(Glu,Tyr)sodium salt (4:1), MW 20 000-50 000 (Sigma catalog number P0275) in kinase reaction buffer (10 mM MOPS pH 7.2, 5 mM DTT, 0.01% Triton-X100, 5 mM MnCl2, 0.5 mM Na3VO4, 5 mM beta-glycerolphosphate), 0.5 μM non-radioactive ATP, 0.25 μCi/25 μl ^33P-gamma-ATP (Perkin Elmer, catalog number NEG602K) final concentrations with or without 5 μL containing test compound or vehicle (DMSO, 1% final concentration), in a total volume of 25 μL, in a polypropylene 96-well plate (Greiner, V-bottom). After 45 min at 30° C., reactions were stopped by adding of 25 μL/well of 150 mM phosphoric acid. The experiment was then conducted as described for EphA7. The ability of a test compound to inhibit the kinase activity was determined using counts per minutes (cpm) measured by the Topcount as:
Cpm (cpd): cpm determined for sample with test compound present
Cpm (control): cpm determined for sample with positive control inhibitor (10 μM staurosporine)
Cpm (vehicle): cpm determined in the presence of vehicle (1% DMSO)
Dose dilution series were prepared for the compounds enabling the testing of dose-response effects in the EphB2 assay and the calculation of the IC50 for each compound. Each compound was routinely tested at concentration of 20 μM followed by a 1/5 serial dilution, 10 points in a final concentration of 1% DMSO. When potency of compound series increased, more dilutions may be prepared and/or the top concentration may be lowered (e.g. 5 μM, 1 μM).

In the next data set the target is T2, EphA2 (UniProt Ref: P29317) (Homo sapiens, UniProt P29317).
T2 construct: purchased Reaction Biology
Nature of the data set: EphA2 assay (Reaction Biology HotSpot radioactive kinase assay). Format: biochemical. Particulars: ATP 10 μM; read-out: EphA2 potency IC50. In short, it runs like this: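 Radiometric HotSpot assay measuring ^33P incorporation from [^33P]-γ-ATP into poly[Glu:Tyr] (4:1) (0.2 mg/mL) with 10 μM ATP. IC50 from serial 1/3 dilutions starting at 10 or 3 μM.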

T2 sequence (P29317 24-976): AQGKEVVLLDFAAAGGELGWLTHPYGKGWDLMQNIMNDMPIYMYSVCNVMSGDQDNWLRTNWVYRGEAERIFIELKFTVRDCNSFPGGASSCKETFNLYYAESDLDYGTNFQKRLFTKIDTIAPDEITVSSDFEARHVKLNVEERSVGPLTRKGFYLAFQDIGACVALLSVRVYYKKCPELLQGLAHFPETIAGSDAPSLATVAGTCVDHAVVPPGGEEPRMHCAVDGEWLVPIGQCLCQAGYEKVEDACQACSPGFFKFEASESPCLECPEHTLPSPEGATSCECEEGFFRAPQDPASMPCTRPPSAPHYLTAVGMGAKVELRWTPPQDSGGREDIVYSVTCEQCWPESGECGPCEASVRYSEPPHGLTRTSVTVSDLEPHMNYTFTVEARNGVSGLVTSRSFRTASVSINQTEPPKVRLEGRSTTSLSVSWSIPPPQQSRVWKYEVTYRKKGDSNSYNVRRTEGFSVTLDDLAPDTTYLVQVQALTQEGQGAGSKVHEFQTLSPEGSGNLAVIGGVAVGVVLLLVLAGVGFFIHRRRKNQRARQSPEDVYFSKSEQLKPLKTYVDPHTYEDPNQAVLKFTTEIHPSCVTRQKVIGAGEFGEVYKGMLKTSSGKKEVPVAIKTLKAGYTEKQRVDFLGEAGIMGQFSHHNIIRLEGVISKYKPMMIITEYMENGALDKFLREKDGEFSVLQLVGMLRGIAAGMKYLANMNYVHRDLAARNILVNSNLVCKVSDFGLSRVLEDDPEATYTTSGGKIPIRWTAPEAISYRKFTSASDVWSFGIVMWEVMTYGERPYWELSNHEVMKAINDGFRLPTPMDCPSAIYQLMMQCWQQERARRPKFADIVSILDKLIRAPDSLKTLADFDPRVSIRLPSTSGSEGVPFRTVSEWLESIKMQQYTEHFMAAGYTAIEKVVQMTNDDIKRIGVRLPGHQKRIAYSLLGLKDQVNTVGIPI

A word on the AUC: it is concentration integrated over time. Broadly, the IC50 is the point on the concentration scale where inhibition reaches its midpoint. Turning to `Cc1ccc(NC(=O)c2cccc(C(F)(F)F)c2)cc1-c1ccc2c(C(O)CN3CCOCC3)n[nH]c2n1` (centres unmarked) [Compound 2, N-{3-[3-(1-Hydroxy-2-morpholin-4-yl-ethyl)-1H-pyrazolo[3,4-b]pyridin-6-yl]-4-methyl-phenyl}-3-trifluoromethyl-benzamide], in data set [1], the “Exposure AUC” value amounted to 659 ng·h/mL. This compound displayed an AUC in data set [1] of 852 ng·h/mL. Also, the IC50 on Recombinant EphB2 was in the range of 25 to 50 nM; on EphA2, 50 to 100 nM.

`Cc1cccc(C(=O)Nc2ccc(C)c(-c3ccc4c(C(O)CN5CCOCC5)n[nH]c4n3)c2)c1` (centres unmarked) [Compound 3, N-{3-[3-(1-Hydroxy-2-morpholin-4-yl-ethyl)-1H-pyrazolo[3,4-b]pyridin-6-yl]-4-methyl-phenyl}-3-methyl-benzamide]: in data set [1], the “Exposure AUC” value worked out at 159 ng·h/mL and the AUC stood at 214 ng·h/mL. Besides, the IC50 at Recombinant EphB2 was in the range of 50 to 100 nM.

With `COc1cc(OC)cc(C(=O)Nc2ccc(C)c(-c3ccc4c(C(O)CN5CCOCC5)n[nH]c4n3)c2)c1` (centres unmarked) [Compound 4, N-{3-[3-(1-Hydroxy-2-morpholin-4-yl-ethyl)-1H-pyrazolo[3,4-b]pyridin-6-yl]-4-methyl-phenyl}-3,5-dimethoxy-benzamide], the AUC in data set [1] (formulated in methylcellulose 5% in water) was found to be 407 ng·h/mL. Also, the IC50 on Recombinant EphB2 is 50 to 100 nM; at EphA2 it was more than 100 nM.

In the case of `Cc1ccc(C(=O)Nc2cccc(C(F)(F)F)c2)cc1-c1ccc2c(C(O)CN3CCOCC3)n[nH]c2n1` (centres unmarked) [Compound 5, 3-[3-(1-Hydroxy-2-morpholin-4-yl-ethyl)-1H-pyrazolo[3,4-b]pyridin-6-yl]-4-methyl-N-(3-trifluoromethyl-phenyl)-benzamide], the IC50 was more than 100 nM at Recombinant EphB2 and 0.01 to 25 nM at EphA2.

In data set [1], `Cc1ccc(NC(=O)c2cccc(N(C)C)c2)cc1-c1ccc2c(C(O)CN3CCOCC3)n[nH]c2n1` (centres unmarked) [Compound 6, 3-Dimethylamino-N-{3-[3-(1-hydroxy-2-morpholin-4-yl-ethyl)-1H-pyrazolo[3,4-b]pyridin-6-yl]-4-methyl-phenyl}-benzamide] returned an AUC of 1790 ng·h/mL. For the same compound, the results for the IC50 on Recombinant EphB2 and at EphA2 were 25 to 50 nM and 50 to 100 nM, respectively.

`COc1cc(OC)cc(C(=O)Nc2ccc(C)c(-c3ccc4c(C(C)O)n[nH]c4n3)c2)c1` (centres unmarked) [Compound 9, N-{3-[3-(1-Hydroxy-ethyl)-1H-pyrazolo[3,4-b]pyridin-6-yl]-4-methyl-phenyl}-3,5-dimethoxy-benzamide] displayed an AUC in data set [1] of 3260 ng·h/mL. In addition, the IC50 at Recombinant EphB2 and at EphA2 was 25 to 50 nM each time.

Take `COc1cc(OC)cc(C(=O)Nc2ccc(C)c(-c3ccc4c(C)n[nH]c4n3)c2)c1` [Compound 11, 3,5-Dimethoxy-N-[4-methyl-3-(3-methyl-1H-pyrazolo[3,4-b]pyridin-6-yl)-phenyl]-benzamide]: the IC50 on Recombinant EphB2 and on EphA2 was 0.01 to 25 nM each time.

Consider `CCc1n[nH]c2nc(-c3cc(NC(=O)c4cc(OC)cc(OC)c4)cnc3C)ccc12` [Compound 13, N-[5-(3-Ethyl-1H-pyrazolo[3,4-b]pyridin-6-yl)-6-methyl-pyridin-3-yl]-3,5-dimethoxy-benzamide], for which the AUC in data set [1] was found to be 1420 ng·h/mL. The IC50 at Recombinant EphB2 and on EphA2 was 50 to 100 nM each time.

Turning to `Cc1cc(C)cc(C(=O)Nc2ccc(C)c(-c3ccc4c(CO)n[nH]c4n3)c2)c1` [Compound 16, N-[3-(3-Hydroxymethyl-1H-pyrazolo[3,4-b]pyridin-6-yl)-4-methyl-phenyl]-3,5-dimethyl-benzamide], the IC50 at Recombinant EphB2 and on EphA2 was 0.01 to 25 nM in each case.

On to `COc1cc(OC)cc(C(=O)Nc2cnc(C)c(-c3ccc4c(C)n[nH]c4n3)c2)c1` [Compound 17, 3,5-Dimethoxy-N-[6-methyl-5-(3-methyl-1H-pyrazolo[3,4-b]pyridin-6-yl)-pyridin-3-yl]-benzamide], for which the AUC in data set [1] is 1230 ng·h/mL. The IC50 on Recombinant EphB2 fell in the range of 25 to 50 nM; on EphA2 it was 50 to 100 nM.

In the case of `CCc1n[nH]c2nc(-c3cc(NC(=O)c4cc(C)cc(OCCN5CCOCC5)c4)ccc3C)ccc12` [Compound 20, N-[3-(3-Ethyl-1H-pyrazolo[3,4-b]pyridin-6-yl)-4-methyl-phenyl]-3-methyl-5-(2-morpholin-4-yl-ethoxy)-benzamide], the IC50 on Recombinant EphB2 and at EphA2 was 0.01 to 25 nM throughout.

With `CCc1n[nH]c2nc(-c3cc(NC(=O)c4cc(C)cc(OCCOC)c4)ccc3C)ccc12` [Compound 21, N-[3-(3-Ethyl-1H-pyrazolo[3,4-b]pyridin-6-yl)-4-methyl-phenyl]-3-(2-methoxy-ethoxy)-5-methyl-benzamide], the IC50 lay within 0.01 to 25 nM on Recombinant EphB2 and 25 to 50 nM at EphA2.

`COc1cc(OC)cc(C(=O)Nc2ccc(C)c(-c3ccc4c(C5(O)CC5)n[nH]c4n3)c2)c1` [Compound 29, N-{3-[3-(1-Hydroxy-cyclopropyl)-1H-pyrazolo[3,4-b]pyridin-6-yl]-4-methyl-phenyl}-3,5-dimethoxy-benzamide] gave an AUC in data set [1] of 5840 ng·h/mL. Besides, the 50% inhibitory concentration (IC50) was in the range of 0.01 to 25 nM on Recombinant EphB2 and 50 to 100 nM at EphA2.

In the case of `CCc1n[nH]c2nc(-c3cc(NC(=O)c4cc(OC)cc(C(F)(F)F)c4)cnc3C)ccc12` [Compound 49, N-[5-(3-Ethyl-1H-pyrazolo[3,4-b]pyridin-6-yl)-6-methyl-pyridin-3-yl]-3-methoxy-5-trifluoromethyl-benzamide], the IC50 at Recombinant EphB2 is more than 100 nM.

On to `Cc1ccc(NC(=O)c2cccc(C(F)(F)F)c2)cc1-c1cc(C)c2c(N)n[nH]c2n1` [Compound A, N-(3-(3-amino-4-methyl-1H-pyrazolo[3,4-b]pyridin-6-yl)-4-methylphenyl)-3-(trifluoromethyl)benzamide], for which, in data set [1], the AUC worked out at 273 ng·h/mL. Besides, on Recombinant EphB2, the IC50 is 0.01 to 25 nM.
